“And” between values parts separate entries of the source, which are not always exact repeats. Equal entries are not always repeated.
Test: Tissue distribution by quantitative whole-body autoradiography (QWBA)
Format: in vivo, male Sprague Dawley and Long-Evans rats
Details: for Concentration of radioactivity: SD rat
Method: The study utilized 4 groups of male SD rats (albino), and 3 groups of male LE rats (pigmented); a total of 39 rats. All animals were obtained from Hilltop Lab Animals, Inc. (Scottdale, Pa.). […] Rats in Group 5 were administered a single 2-h IV infusion of [^14C]brincidofovir at a target dose of 2 mg/kg. […] Three dosing formulations (one for high dose IV, one for low dose IV, and one for PO dose) were prepared at QPS on the day of dosing. The IV formulation for Groups 1, 2, 3, and 4 contained a vehicle of 10 mM sodium phosphate buffer in 5% dextrose solution at pH 8.0(±0.1).
Each animal, at their respective termination time points, was euthanized for QWBA analysis immediately after blood collection. One rat per time point per Group was euthanized as listed below.
The blood samples were maintained on wet ice (approximately 4° C.) and then centrifuged to obtain plasma within 1 h of the blood collection time. Centrifuge settings were recorded in the study notebook. Duplicate aliquots of plasma (0.050 mL) were analyzed for radioactivity using direct counting by LSC, and residual plasma was stored at approximately −70° C. and was saved for possible future analysis under a separate study protocol. Residual red blood cells were discarded as radioactive waste.
The pinna, distal limbs, hair, and tail were removed from each frozen carcass and each frozen carcass was embedded in an aqueous suspension of approximately 2% (w/v) carboxymethylcellulose and frozen into a block. The blocks were stored at approximately −20° C. prior to sectioning. Each blocked carcass was mounted on the object stage of a cryomicrotome (Leica CM3600 Cryomacrocut, Nussloch, Germany and Vibratome 9800, St. Louis, Mo.) maintained at approximately −20° C. and internal standards (3), which were plasma fortified with [^14C]-glucose at one concentration (approximately 0.05 μCi/mL), were placed into the frozen blocks, prior to sectioning, and were used for section thickness quality control. A number of whole-body sections (approximately 40 μm thick) were taken in the sagittal plane at various levels of interest using a whole-body cryomicrotome set at −20° C. Sagittal sections (20-50 μm thick) of frozen carcasses were exposed to phosphor imaging plates. Regions of images in tissues were converted to concentrations using standards. All of the major tissues, organs, and biological fluids were represented.
Tissue concentration data was determined for the following tissues and/or contents: adipose (brown and white), adrenal gland, bile (in duct), blood (cardiac), bone, bone marrow, brain (cerebrum, cerebellum, medulla), cecum (and contents), large intestine (and contents), epididymis, esophagus, eye (uvea and lens), Harderian gland, heart, kidney (cortex and medulla), liver, lung, lymph node, pancreas, pituitary gland, prostate gland, salivary gland, seminal vesicles, skeletal muscle, skin (pigmented and non-pigmented), small intestine (and contents), stomach (gastric mucosa and contents), spleen, spinal cord, testis, thymus, thyroid, and urinary bladder (and contents).
The imaging plate and sections were placed in light-tight exposure cassettes, in a copper-lined lead safe, for a 4-day exposure at room temperature. […] Quantification was performed by image densitometry using MCD image analysis software (v. 7.0, Interfocus Imaging Ltd) and a standard curve constructed from the integrated response [i.e., Molecular Dynamics Counts per square millimeter (MDC/mm^2)] and the nominal concentrations of the ^14C-calibration standards. The concentrations of radioactivity were expressed as the μg equivalents of [^14C]brincidofovir per gram sample (μg equiv/g). A lower limit of quantification (LLOQ) was applied to the data (See section 6.7.4).
Tissue concentrations that fell below the LLOQ were identified as being below the quantification limit (BQL). Tissue areas that were not visualized on autoradiographic images were identified as no sample (NS) and reported as BQL.

[1] = Group 6 SD albino rats, oral 15 mg/kg, c2 2 h, c3 24 h, c4 168 h, LLOQ 0.034

In the case of CCCCCCCCCCCCCCCCOCCCOP(=O)(O)CO[C@H](CO)Cn1ccc(N)nc1=O [[^14C]brincidofovir], the “Bile Cmax, IV relative to oral” value (15 mg/kg) is reported as 14 times, the “Small intestinal tissue concentration, IV relative to oral” value (15 mg/kg) is reported as “approximately 1/10” and the “Small intestine Cmax, oral compared to IV” value (15 mg/kg) is reported as 6 fold. For the same compound, the “Tissue t1/2: adrenal gland” value (15 mg/kg 2-h IV) was 254 h, the “Tissue t1/2: blood (cardiac)” value (15 mg/kg 2-h IV) was 14.2 h and the “Tissue t1/2: bone marrow” value (15 mg/kg 2-h IV) was 276 h. The “Tissue t1/2: lymph node” value (15 mg/kg 2-h IV) was 345 h, the “Tissue t1/2: skin non-pigmented” value (15 mg/kg 2-h IV) was 310 h and the “Tissue t1/2: spleen” value (15 mg/kg 2-h IV) was 378 h. For the same compound, the “Tissue t1/2: adipose (brown)” value (15 mg/kg PO) was 234 h, the “Tissue t1/2: esophagus” value (15 mg/kg PO) was 37.2 h and the “Tissue t1/2: lung” value (15 mg/kg PO) was 93 h. The “Tissue t1/2: pituitary gland” value (15 mg/kg PO) was 106 h, the “Tissue t1/2: small intestine” value (15 mg/kg PO) was 98.1 h and the “Tissue t1/2: spleen” value (15 mg/kg PO) was 115 h. It also gave a Concentration of radioactivity (Adipose (brown), 2 h, 15 mg/kg IV) of 2.088 μg equiv./g, a Concentration of radioactivity (Adipose (brown), 24 h, 15 mg/kg IV) of 0.473 μg equiv./g and a Concentration of radioactivity (Adipose (brown), 168 h, 15 mg/kg IV) of 0.391 μg equiv./g. For the same compound, the Concentration of radioactivity (Adipose (white), 2 h, 15 mg/kg IV) was 0.386 μg equiv./g, the Concentration of radioactivity (Adipose (white), 24 h, 15 mg/kg IV) was 0.135 μg equiv./g and the Concentration of radioactivity (Adipose (white), 168 h, 15 mg/kg IV) was “BQL (BQL = Value is below the LLOQ)”. It also gave a Concentration of radioactivity (Adrenal Gland, 2 h, 15 mg/kg IV) of 4.308 μg equiv./g, a Concentration of radioactivity (Adrenal Gland, 24 h, 15 mg/kg IV) of 1.680 μg equiv./g and a Concentration of radioactivity (Adrenal Gland, 168 h, 15 mg/kg IV) of 0.647 μg equiv./g. It also gave a Concentration of radioactivity (Bile (in duct), 24 h, 15 mg/kg IV) of 1.469 μg equiv./g, a Concentration of radioactivity (Bile (in duct), 168 h, 15 mg/kg IV) of 0.058 μg equiv./g and a Concentration of radioactivity (Blood (cardiac), 2 h, 15 mg/kg IV) of 6.865 μg equiv./g. The Concentration of radioactivity (Blood (cardiac), 24 h, 15 mg/kg IV) was 0.308 μg equiv./g, the Concentration of radioactivity (Blood (cardiac), 168 h, 15 mg/kg IV) was “BQL (BQL = Value is below the LLOQ)” and the Concentration of radioactivity (Bone Marrow, 2 h, 15 mg/kg IV) was 3.411 μg equiv./g. The Concentration of radioactivity (Bone Marrow, 24 h, 15 mg/kg IV) was 1.219 μg equiv./g, the Concentration of radioactivity (Bone Marrow, 168 h, 15 mg/kg IV) was 0.196 μg equiv./g and the Concentration of radioactivity (Bone, 2 h, 15 mg/kg IV) was 0.449 μg equiv./g. For the same compound, the Concentration of radioactivity (Bone, 24 h, 15 mg/kg IV) was 0.095 μg equiv./g, the Concentration of radioactivity (Bone, 168 h, 15 mg/kg IV) was “BQL (BQL = Value is below the LLOQ)” and the Concentration of radioactivity (Brain (cerebellum), 2 h, 15 mg/kg IV) was 0.907 μg equiv./g. For the same compound, the Concentration of radioactivity (Brain (cerebellum), 24 h, 15 mg/kg IV) was 0.161 μg equiv./g, the Concentration of radioactivity (Brain (cerebellum), 168 h, 15 mg/kg IV) was “BQL (BQL = Value is below the LLOQ)” and the Concentration of radioactivity (Brain (cerebrum), 2 h, 15 mg/kg IV) was 0.803 μg equiv./g. The Concentration of radioactivity (Brain (cerebrum), 24 h, 15 mg/kg IV) was 0.107 μg equiv./g, the Concentration of radioactivity (Brain (cerebrum), 168 h, 15 mg/kg IV) was “BQL (BQL = Value is below the LLOQ)” and the Concentration of radioactivity (Brain (medulla), 2 h, 15 mg/kg IV) was 0.864 μg equiv./g. The Concentration of radioactivity (Brain (medulla), 24 h, 15 mg/kg IV) was 0.132 μg equiv./g, the Concentration of radioactivity (Brain (medulla), 168 h, 15 mg/kg IV) was “BQL (BQL = Value is below the LLOQ)” and the Concentration of radioactivity (Cecum (contents), 2 h, 15 mg/kg IV) was 0.085 μg equiv./g. For the same compound, the Concentration of radioactivity (Cecum (contents), 24 h, 15 mg/kg IV) was 58.016 μg equiv./g, the Concentration of radioactivity (Cecum, 2 h, 15 mg/kg IV) was 3.658 μg equiv./g and the Concentration of radioactivity (Cecum, 24 h, 15 mg/kg IV) was 5.981 μg equiv./g. The Concentration of radioactivity (Cecum, 168 h, 15 mg/kg IV) was 0.099 μg equiv./g, the Concentration of radioactivity (Epididymis, 2 h, 15 mg/kg IV) was 2.391 μg equiv./g and the Concentration of radioactivity (Epididymis, 24 h, 15 mg/kg IV) was 0.566 μg equiv./g. For the same compound, the Concentration of radioactivity (Epididymis, 168 h, 15 mg/kg IV) was 0.234 μg equiv./g, the “Concentration, Seminal Vesicles” value (G4 15 mg/kg IV, c3 2 h, c6 8 h, c9 24 h, c12 72 h) was 1.374 μg equiv/g tissue and 1.834 μg equiv/g tissue and 1.717 μg equiv/g tissue and 1.127 μg equiv/g tissue and the “Concentration, Eye (lens)” value (G5 2 mg/kg IV, c2 2 h, c5 8 h, c8 24 h, c11 72 h, LLOQ 0.005) was “BQL”. For the same compound, the Urinary bladder contents (Group 3, 2 h) was 47.0 μg equiv/g, the “Concentration at Tmax: kidney cortex” value (Group 3 SD, 15 mg/kg 2-h IV) was 106.5 μg equiv/g and the “Concentration at Tmax: kidney medulla” value (Group 3 SD, 15 mg/kg 2-h IV) was 33.4 μg equiv/g. For the same compound, the “Concentration at Tmax: liver” value (Group 3 SD, 15 mg/kg 2-h IV) was 229.4 μg equiv/g, the “Concentration at Tmax: small intestine” value (Group 3 SD, 15 mg/kg 2-h IV) was 43.7 μg equiv/g and the “Concentration at Tmax: urinary bladder” value (Group 3 SD, 15 mg/kg 2-h IV) was 36.0 μg equiv/g. The “Highest observed concentration in blood” value (Group 3 SD, 15 mg/kg IV, 2 h) was 6.9 μg equiv/g, the “Concentration in spleen at 840 h post-dose” value (Group 4, 15 mg/kg IV) was 0.270 μg equiv/g and the Urinary bladder contents (Group 4, 4 h) was 814.4 μg equiv/g. For the same compound, the “Concentration at Tmax: kidney cortex” value (Group 4 LE, 15 mg/kg 2-h IV) was 97.3 μg equiv/g, the “Concentration at Tmax: kidney medulla” value (Group 4 LE, 15 mg/kg 2-h IV) was 27.0 μg equiv/g and the “Concentration at Tmax: liver” value (Group 4 LE, 15 mg/kg 2-h IV) was 229.7 μg equiv/g. For the same compound, the “Concentration at Tmax: small intestine” value (Group 4 LE, 15 mg/kg 2-h IV) was 71.0 μg equiv/g, the “Concentration at Tmax: urinary bladder” value (Group 4 LE, 15 mg/kg 2-h IV) was 22.8 μg equiv/g and the “Highest observed concentration in blood” value (Group 4 LE, 15 mg/kg IV, 2 h) was 5.3 μg equiv/g. For the same compound, the Bile (Group 5, 2 h) was 32.7 μg equiv/g, the Urinary bladder contents (Group 5, 2 h) was 22.9 μg equiv/g and the “Concentration at Tmax: kidney cortex” value (Group 5 LE, 2 mg/kg 2-h IV) was 11.0 μg equiv/g. The “Concentration at Tmax: kidney medulla” value (Group 5 LE, 2 mg/kg 2-h IV) was 3.4 μg equiv/g, the “Concentration at Tmax: large intestine” value (Group 5 LE, 2 mg/kg 2-h IV) was 1.0 μg equiv/g and the “Concentration at Tmax: liver” value (Group 5 LE, 2 mg/kg 2-h IV) was 34.2 μg equiv/g. The “Concentration at Tmax: small intestine” value (Group 5 LE, 2 mg/kg 2-h IV) was 2.5 μg equiv/g, the “Highest observed concentration in blood” value (Group 5 LE, 2 mg/kg IV, 2 h) was 0.771 μg equiv/g and the Bile (Group 6, 2 h) was 9.7 μg equiv/g. The Urinary bladder contents (Group 6, 24 h) was 39.9 μg equiv/g, the “Concentration of radioactivity, Brain (cerebrum)” value [1] was “BQL” and the “Concentration of radioactivity, Brain (medulla)” value [1] was “BQL”. The “Concentration of radioactivity, Eye (lens)” value [1] was “BQL”, the “Concentration of radioactivity, Spinal Cord” value [1] was “BQL” and the “Concentration of radioactivity, Epididymis” value (Group 6 SD albino rats, oral 15 mg/kg, c2 2 h, c3 24 h, c4 168 h, LLOQ 0.034, 15 mg/kg) was 0.073 μg equiv./g and 0.091 μg equiv./g and 0.075 μg equiv./g. The “Concentration at Tmax: cecum” value (Group 6 SD, 15 mg/kg PO) was 7.5 μg equiv/g and the “Concentration at Tmax: kidney cortex” value (Group 6 SD, 15 mg/kg PO) was 18.4 μg equiv/g.

From patent US20170368082A1, “FORMULATIONS OF BRINCIDOFOVIR” (priority 2016, published 2017)
